Experimental data from patent US6358885B1, “Substituted phenylheterocyclic herbicides” (Mississippi State University, priority 1992, dated 2002).

How the values were obtained:
morningglory [1] = experiment: Test B preemergence/postemergence greenhouse plant response rating 0 to 10; format: in vivo, Ipomoea hederacea; settings: 0 to 10 scale
In short: (§1)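 Postemergence treatment of plants two to eighteen cm tall ran alongside preemergence treatment of planted seed, each using compound in a non-phytotoxic solvent.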

rape = experiment: Test C preemergence/postemergence greenhouse plant response rating 0 to 100; format: in vivo, Brassica napus; settings: POSTEMERGENCE
In short: (§2)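 Compounds in non-phytotoxic solvent applied preemergence to sandy loam one day after planting, postemergence at the 1–4 leaf stage, or to ~2.5 cm floodwater over silt loam.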

cocklebur = experiment: Test B preemergence/postemergence greenhouse plant response rating 0 to 10; format: in vivo, Xanthium pensylvanicum; settings: 0 to 10 scale
In short: as §1

bedstraw = experiment: as above; format: in vivo, Galium aparine; settings: 0 to 10 scale
In short: as §1

morningglory [2] = experiment: Test C preemergence/postemergence greenhouse plant response rating 0 to 100; format: in vivo, Ipomoea hederacea; settings: POSTEMERGENCE
In short: as §2

velvetleaf = experiment: Test B preemergence/postemergence greenhouse plant response rating 0 to 10; format: in vivo, Abutilon theophrasti; settings: 0 to 10 scale
In short: as §1

barley [3] = experiment: Test C preemergence/postemergence greenhouse plant response rating 0 to 100; format: in vivo, Hordeum vulgare; settings: POSTEMERGENCE
In short: as §2

giant foxtail [4] = experiment: as above; format: in vivo, Setaria faberii; settings: POSTEMERGENCE
In short: as §2

lambsquarters = experiment: Test B preemergence/postemergence greenhouse plant response rating 0 to 10; format: in vivo, Chenopodium album; settings: 0 to 10 scale
In short: as §1

giant foxtail [5] = experiment: as above; format: in vivo, Setaria faberii; settings: 0 to 10 scale
In short: as §1

cheatgrass = experiment: as above; format: in vivo, Bromus secalinus; settings: 0 to 10 scale
In short: as §1

soybean [6] = experiment: Test C preemergence/postemergence greenhouse plant response rating 0 to 100; format: in vivo, Glycine max; settings: POSTEMERGENCE
In short: as §2

sorghum = experiment: as above; format: in vivo, Sorghum bicolor; settings: POSTEMERGENCE
In short: as §2

chickweed = experiment: as above; format: in vivo, Stellaria media; settings: POSTEMERGENCE
In short: as §2

rice = experiment: Test C flood test plant response rating 0 to 100; format: in vivo, Oryza sativa
In short: as §2

blackgrass = experiment: Test C preemergence/postemergence greenhouse plant response rating 0 to 100; format: in vivo, Alopecurus myosuroides; settings: POSTEMERGENCE
In short: as §2

soybean [7] = experiment: Test B preemergence/postemergence greenhouse plant response rating 0 to 10; format: in vivo, Glycine max; settings: 0 to 10 scale
In short: as §1

barley [8] = experiment: as above; format: in vivo, Hordeum vulgare; settings: 0 to 10 scale
In short: as §1

In the case of `COCN1C(=O)COc2cc(F)c(-c3nn4c(c3Cl)CCCC4)cc21` [Compound 55], the “Plant response rating, Morningglory” value (morningglory [1]; POSTEMERGENCE, Rate 10 g/ha) is reported as 10, the “Plant response rating, Morningglory” value (morningglory [1]; POSTEMERGENCE, Rate 50 g/ha) is reported as 10 and the “Plant response rating, Morningglory” value (morningglory [1]; PREEMERGENCE, Rate 50 g/ha) is reported as 8. For the same molecule, the “Plant response rating, Rape” value (rape; 62 g/ha, 0 to 100 scale) was 100, the “Plant response rating (0 to 100), Rape” value (rape; Rate 1 g/ha) was 60 and the “Plant response rating (0 to 100), Rape” value (rape; Rate 4 g/ha) was 100. The “Plant response rating (0 to 100), Rape” value (rape; Rate 16 g/ha) was 100, the “Plant response rating, Cocklebur” value (cocklebur; POSTEMERGENCE, Rate 10 g/ha) was 10 and the “Plant response rating, Cocklebur” value (cocklebur; POSTEMERGENCE, Rate 50 g/ha) was 10. The “Plant response rating, Cocklebur” value (cocklebur; PREEMERGENCE, Rate 50 g/ha) was 2, the “Plant response rating, Bedstraw” value (bedstraw; POSTEMERGENCE, Rate 10 g/ha) was 9 and the “Plant response rating, Bedstraw” value (bedstraw; POSTEMERGENCE, Rate 50 g/ha) was 10. For the same molecule, the “Plant response rating, Bedstraw” value (bedstraw; PREEMERGENCE, Rate 10 g/ha) was 3, the “Plant response rating, Bedstraw” value (bedstraw; PREEMERGENCE, Rate 50 g/ha) was 10 and the “Plant response rating, Morningglory” value (morningglory [2]; 62 g/ha, 0 to 100 scale) was 100. The “Plant response rating (0 to 100), Morningglory” value (morningglory [2]; Rate 1 g/ha) was 80, the “Plant response rating (0 to 100), Morningglory” value (morningglory [2]; Rate 4 g/ha) was 100 and the “Plant response rating (0 to 100), Morningglory” value (morningglory [2]; Rate 16 g/ha) was 100. The “Plant response rating, Velvetleaf” value (velvetleaf; POSTEMERGENCE, Rate 10 g/ha) was 10, the “Plant response rating, Velvetleaf” value (velvetleaf; POSTEMERGENCE, Rate 50 g/ha) was 9 and the “Plant response rating, Velvetleaf” value (velvetleaf; PREEMERGENCE, Rate 50 g/ha) was 10. For the same molecule, the “Plant response rating Barley Igri” value (barley [3]; 62 g/ha, 0 to 100 scale) was 50, the “Plant response rating (0 to 100), Barley Igri” value (barley [3]; Rate 1 g/ha) was 20 and the “Plant response rating (0 to 100), Barley Igri” value (barley [3]; Rate 4 g/ha) was 30. The “Plant response rating (0 to 100), Barley Igri” value (barley [3]; Rate 16 g/ha) was 40, the “Plant response rating, Giant foxtail” value (giant foxtail [4]; 62 g/ha, 0 to 100 scale) was 50 and the “Plant response rating (0 to 100), Giant foxtail” value (giant foxtail [4]; Rate 1 g/ha) was 20. The “Plant response rating (0 to 100), Giant foxtail” value (giant foxtail [4]; Rate 4 g/ha) was 30, the “Plant response rating (0 to 100), Giant foxtail” value (giant foxtail [4]; Rate 16 g/ha) was 40 and the “Plant response rating, Lambsquarter” value (lambsquarters; POSTEMERGENCE, Rate 10 g/ha) was 10. For the same molecule, the “Plant response rating, Lambsquarter” value (lambsquarters; POSTEMERGENCE, Rate 50 g/ha) was 10, the “Plant response rating, Lambsquarter” value (lambsquarters; PREEMERGENCE, Rate 50 g/ha) was 10 and the “Plant response rating, Giant foxtail” value (giant foxtail [5]; POSTEMERGENCE, Rate 10 g/ha) was 4. The “Plant response rating, Giant foxtail” value (giant foxtail [5]; POSTEMERGENCE, Rate 50 g/ha) was 6, the “Plant response rating, Giant foxtail” value (giant foxtail [5]; PREEMERGENCE, Rate 10 g/ha) was 2 and the “Plant response rating, Giant foxtail” value (giant foxtail [5]; PREEMERGENCE, Rate 50 g/ha) was 8. The “Plant response rating, Cheatgrass” value (cheatgrass; POSTEMERGENCE, Rate 10 g/ha) was 6, the “Plant response rating, Cheatgrass” value (cheatgrass; POSTEMERGENCE, Rate 50 g/ha) was 8 and the “Plant response rating, Cheatgrass” value (cheatgrass; PREEMERGENCE, Rate 10 g/ha) was 1. For the same molecule, the “Plant response rating, Cheatgrass” value (cheatgrass; PREEMERGENCE, Rate 50 g/ha) was 5, the “Plant response rating, Soybean” value (soybean [6]; 62 g/ha, 0 to 100 scale) was 95 and the “Plant response rating (0 to 100), Soybean” value (soybean [6]; Rate 1 g/ha) was 40. The “Plant response rating (0 to 100), Soybean” value (soybean [6]; Rate 4 g/ha) was 70, the “Plant response rating (0 to 100), Soybean” value (soybean [6]; Rate 16 g/ha) was 90 and the “Plant response rating, Sorghum” value (sorghum; 62 g/ha, 0 to 100 scale) was 60. For the same molecule, the “Plant response rating (0 to 100), Sorghum” value (sorghum; Rate 1 g/ha) was 30, the “Plant response rating (0 to 100), Sorghum” value (sorghum; Rate 4 g/ha) was 40 and the “Plant response rating (0 to 100), Sorghum” value (sorghum; Rate 16 g/ha) was 50. The “Plant response rating, Chickweed” value (chickweed; 62 g/ha, 0 to 100 scale) was 100, the “Plant response rating (0 to 100), Chickweed” value (chickweed; Rate 1 g/ha) was 30 and the “Plant response rating (0 to 100), Chickweed” value (chickweed; Rate 4 g/ha) was 70. For the same molecule, the “Plant response rating (0 to 100), Chickweed” value (chickweed; Rate 16 g/ha) was 100, the “Plant response rating (0 to 100), Rice Japonica” value (rice; POSTEMERGENCE section, flood test, Rate 1 g/ha) was 10 and the “Plant response rating (0 to 100), Rice Japonica” value (rice; POSTEMERGENCE section, flood test, Rate 4 g/ha) was 30. The “Plant response rating (0 to 100), Rice Japonica” value (rice; Rate 16 g/ha, under POSTEMERGENCE head (flood test species)) was 70, the “Plant response rating Rice Japonica” value (rice; flood test species listed under POSTEMERGENCE, 62 g/ha, 0 to 100 scale) was 90 and the “Plant response rating, Blackgrass” value (blackgrass; 62 g/ha, 0 to 100 scale) was 60. The “Plant response rating (0 to 100), Blackgrass” value (blackgrass; Rate 1 g/ha) was 30, the “Plant response rating (0 to 100), Blackgrass” value (blackgrass; Rate 4 g/ha) was 40 and the “Plant response rating (0 to 100), Blackgrass” value (blackgrass; Rate 16 g/ha) was 50. For the same molecule, the “Plant response rating, Soybean” value (soybean [7]; POSTEMERGENCE, Rate 10 g/ha) was 7, the “Plant response rating, Soybean” value (soybean [7]; POSTEMERGENCE, Rate 50 g/ha) was 9 and the “Plant response rating, Soybean” value (soybean [7]; PREEMERGENCE, Rate 50 g/ha) was 0. The “Plant response rating, Barley” value (barley [8]; POSTEMERGENCE, Rate 10 g/ha) was 5, the “Plant response rating, Barley” value (barley [8]; POSTEMERGENCE, Rate 50 g/ha) was 4 and the “Plant response rating, Barley” value (barley [8]; PREEMERGENCE, Rate 10 g/ha) was 0. For the same molecule, the “Plant response rating, Barley” value (barley [8]; PREEMERGENCE, Rate 50 g/ha) was 3.
